Holding throughout (experiment): relative viability (nuclei count vs DMSO), 5 days (fraction); higher = more cells survive
Compound in experiment [1]: C1=CC(=CC=C1NC(=S)NNC2=C(C=C(C=C2[N+](=O)[O-])C(F)(F)F)[N+](=O)[O-])F [Kobe2602] + CC(=O)c1c(C)c2cnc(Nc3ccc(N4CCNCC4)cn3)nc2n(C2CCCC2)c1=O [Palbociclib] (partner 0.5 µM)
Summed up: (§1)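 After 5 days of treatment, lung cancer cells in 1536-well plates were fixed and stained in a single step (final 0.05% Triton X-100, 1% formaldehyde, 1 ug/ml Hoechst) and their nuclei counted on 4× images. Treatment had been applied by pin tool the day after seeding as one drug alone or as a fixed anchor-drug dose with five library-drug doses (not always all listed) in √10 steps. Relative viability is the nuclei count of treated wells divided by that of vehicle wells, and values are medians of duplicate plates.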

Compound in experiment [2]: C1=CC(=CC=C1NC(=S)NNC2=C(C=C(C=C2[N+](=O)[O-])C(F)(F)F)[N+](=O)[O-])F [Kobe2602] + CC(C)C[C@H](NC(=O)[C@H](Cc1ccccc1)NC(=O)c1cnccn1)B(O)O [Bortezomib] (partner 0.002 µM)
Summed up: as §1

Compound in experiment [3]: C1=CC(=CC=C1NC(=S)NNC2=C(C=C(C=C2[N+](=O)[O-])C(F)(F)F)[N+](=O)[O-])F [Kobe2602] + Nc1ncn([C@H]2C[C@H](O)[C@@H](CO)O2)c(=O)n1 [Decitabine] (partner 2 µM)
An outline of the steps:
as §1

Compound in experiment [4]: COc1cc2nccc(Oc3ccc(NC(=O)C4(C(=O)Nc5ccc(F)cc5)CC4)cc3)c2cc1OC [Cabozantinib] + COc1cccc2cc(-c3nc([C@H]4CC[C@H](C(=O)O)CC4)n4ncnc(N)c34)[nH]c12 [OSI-027] (partner 0.5 µM)
An outline of the steps:
as §1

Take UMC-11: the relative viability in experiment [1] (first compound 0.2 µM) amounted to 0.356; in experiment [1] (first compound 0.6325 µM), 0.331; in experiment [1] (first compound 2 µM) it was 0.347; in experiment [1] (first compound 6.325 µM) it was 0.343; in experiment [1] (first compound 20 µM), 0.345; in experiment [2] (first compound 0.2 µM) it was 0.779. For the same cell line, the relative viability in experiment [2] (first compound 0.6325 µM) is 0.819; in experiment [2] (first compound 2 µM), 0.795; in experiment [2] (first compound 6.325 µM) it was 0.628; in experiment [2] (first compound 20 µM), 0.645; in experiment [3] (first compound 0.2 µM), 0.564; in experiment [3] (first compound 0.6325 µM), 0.622. Also, the relative viability in experiment [3] (first compound 2 µM) worked out at 0.675; in experiment [3] (first compound 6.325 µM), 0.466; in experiment [3] (first compound 20 µM), 0.652; in experiment [4] (first compound 0.02 µM), 0.45; in experiment [4] (first compound 0.06325 µM), 0.49; in experiment [4] (first compound 0.2 µM), 0.518. Besides, the relative viability is 0.547 in experiment [4] (first compound 0.6325 µM) and 0.432 in experiment [4] (first compound 2 µM).

Values taken from the supplement of paper PMC10307832.
